Measured values taken from EP4483904A1, “POLYOXOMETALATES AS MEMBRANE CARRIERS” (Universität Wien, priority 2023, dated 2025).

Legend:
[1] = Stability investigation by NMR spectroscopy (hydrolysis in buffer/media); type: physicochemical; conditions: for Hydrolysis/Stability pH 7.5: 10 mM Hepes or 10 mM Tris, pH 7.4; for Hydrolysis/Stability pH 7.5 / Hydrolysis/Stability pH 5.5: 107 mM NaCl; for Hydrolysis/Stability pH 5.5: 10 mM Mes; for long-term stability in aqueous solution: slightly acidic and neutral pH, 24 h and longer, NMR
Source text: POMs of the globular Keggin and planar Anderson archetype and with varying charge status from -3 to -8 (Fig. 1) were selected. To offset the known [XW12O40]^n- (X = hetero-ion) hydrolysis propensity in aqueous solution, most pronounced at neutral pH, more highly charged mixed-metal derivatives (Fig. 1,lefthand side) were also included. The latter are obtained by hydrolytic removal of one W=O^4+ unit from the Keggin structure and the subsequent incorporation of an addenda metal to fill the cavity of the monolacunary intermediate. In detail, the following POM anions were studied (as acid or sodium, potassium, or tetraalkylammonium salts), see Fig. 1: [α-P^VW^VI12O40]^3- ([PW12]^3-), [α-Si^IVW^VI12O40]^4- ([SiW12]^4-), [α-Al^IIIW^VI12O40]^5- ([AlW12]^5-), [α-P^VV^VW^VI11O40]^4- ([PVW11]^4-), [α-Si^IVMo^VIW^VI11O40]^4- ([SiMoW11]^4-), [α- HAl^IIIGe^IVW^VI11O39(H2O)]^5- ([GeAlW11]^5-), [{α-P^VW^VI11O39Zr^IV(µ-OH)(H2O)}2]^8- ([(PZrW11)2]^8-), and [Al^III(OH)6Mo^VI6O18]^3- ([AlMo6]^3-). First, their long-term (24 h and longer) stability in aqueous solution (slightly acidic and neutral) was investigated by applying the active NMR nuclei in their composition (see).

[2] = Transport experiments in CF-loaded zwitterionic EYPC vesicles (CF fluorescence, Hill analysis); type: biochemical; design: key to membrane transport activity: - - -: No detectable activity at pH 5.5 and 7.4; conditions: for membrane transport activity: pH 5.5 and 7.4, heptaArg, protamine, polyArg (for [AlMo6]^3- heptaArg and protamine only); for behaviour towards liposomes at strongly acidic pH: pH 1.2
Protocol: The dry film was rehydrated with 1 mL buffer (50 mM CF, 10 mM Hepes, pH 7.4 or 50 mM CF, 10 mM Tris, pH 7.4) for 30 min at room temperature, subjected to freeze-thaw cycles (7 times) and extrusions (15 times) through a polycarbonate membrane (pore size 100 nm). Extravesicular components were removed by size exclusion chromatography (NAP-25 column Sephadex G-25 DNA grade) with 10 mM Hepes, 107 mM NaCl, pH 7.4 or 10 mM Hepes, 107 mM NaCl, pH 7.4. Phospholipid concentration was calculated by the Stewart assay. […]
Vesicles stock solutions (5-10 µL) were diluted with the corresponding buffer in a disposable plastic cuvette and gently stirred (total volume 2000 µL, final lipid concentration 13 µM). […] Fluorescence intensities were normalized to fractional emission as: I(t) = (It −I0)/(I∞ −I0) [formula]
Where I0 = It before POM addition and […] = I∞ after lysis. For Hill analysis, It before lysis was defined as transport activity, Y, and plotted against POM concentration, c, and fitted to the Hill equation (2), to afford the activity in absence of POM, Y0, the maximal activity, Ymax, the concentration needed to achieve 50 % of maximal activity, EC50, and the Hill coefficient, n. Y = Y0 + (Ymax −Y0)/(1 + (((EC50)/(c)))^n) [formula]
In the transport measurements, where different carriers (POMs) are tested with the same cargo, the activator efficiency (E) is determined by their capacity to transport the impermeable cargo to the intravesicular region and is characterized by Ymax, its maximal activity, and EC50, the effective activator concentration. An ideal carrier reaches high Ymax at low EC50. To count both factors, the activator efficiency is defined as: E = Ymax (pEC50)/(f) [formula] were pEC50 is the negative logarithm of the EC50, and fa scaling factor, which was set to 20.6 to calibrate the highest (previously known) activation efficiency, E, as 10.
The capability of POMs to act as membrane carriers was explored first in large unilamellar vesicles (LUVs), loaded with carboxyfluorescein (CF). We selected […] representative cationic peptides, heptaarginine (heptaArg), heptalysine (heptaLys), protamine, and polyarginine (polyArg), as test cargos. Inside the LUVs, the CF dye was encapsulated at self-quenching concentrations. With a suitable carrier, heptaArg can be taken up into the vesicles, bind with entrapped CF, and shuttle back to the exterior, spreading the previously quenched CF, and thereby restoring its fluorescence (Fig. 3). In the time-resolved fluorescence experiments, to test whether a POM acts as molecular carrier, the CF emission was continuously monitored during the addition of the inorganic carrier (t = 60 s) and after injection the impermeable heptaArg (t = 120 s). At the end of the experiment (t = 600 s), the surfactant Triton X-100 was added to release all the entrapped CF and allow normalization of the intensity data (Fig. 4a).

[3] = HPTS/DPX assay of membrane transport in EYPC vesicles; type: biochemical; conditions: Measured by HPTS/DPX assay
[4] = EYPC vesicles, 0.1 µM polyArg, neutral pH 7.4
[5] = EYPC vesicles, 0.1 µM polyArg, neutral pH 7.4, read-out: PolyArg EC50
[6] = EYPC vesicles, 1 µM protamine, neutral pH 7.4
[7] = Tris-HCl pH 7.5 freshly prepared

O=C(O)CCCc1ccc2ccc3cccc4ccc1c2c34 [PyBu^-, pyrenebutyrate, reference compound]
Hydrolysis/Stability pH 7.5 [1]: stable
Hydrolysis/Stability pH 5.5 [1]: stable
PolyArg E (activation efficiency) [2, 4]: 8.5
PolyArg Ymax [2, 4]: 91%
EC50 [2, 5]: 12 µM
Protamine E (activation efficiency) [2, 6]: 5.3
Protamine Ymax [2, 6]: 77%
EC50 ([2]; EYPC vesicles, 1 µM protamine, neutral pH 7.4, read-out: Protamine EC50): 39 µM
HeptaArg Ymax ([2]; EYPC vesicles, 10 µM heptaArg, neutral pH 7.4): 100%
HeptaArg E (activation efficiency) ([2]; EYPC vesicles, 10 µM heptaArg, neutral pH 7.4, E = Ymax(pEC50/f), f = 20.6): 4.8
EC50 ([2]; EYPC vesicles, 10 µM heptaArg, neutral pH 7.4, read-out: HeptaArg EC50): 100 µM
efficacy when the sequence of carrier-cargo addition was reversed ([2]; heptaarginine 10 µM, Fig. 12): significantly reduces its activity

(C4H12N)4[α-HAl^IIIGe^IVW^VI11O39(H2O)]·11H2O [[GeAlW11]^5-]
Hydrolysis/Stability pH 7.5 [1]: stable
POM anions with % for parent (active) anion based on signals integration ([1]; Tris-HCl pH 7.5 after 1 day): [HAl^IIIGe^IVW^VI11O39(H2O)] ^4-
POM anions with % for parent (active) anion based on signals integration [1, 7]: [HAl^IIIGe^IVW^VI11O39(H2O)] ^4-
long-term stability in aqueous solution [1]: stable at neutral pH
membrane transport activity ([2]; EYPC vesicles): - - -[j]

(Et2NH2)8[{α-P^VW^VI11O39Zr^IV(µ-OH)(H2O)}2]·7H2O [[(PZrW11)2]^8-]
Hydrolysis/Stability pH 7.5 [1]: stable
POM anions with % for parent (active) anion based on signals integration ([1]; Hepes pH 7.5 after 1 day): [{α-PW11O39Zr(µ-OH)(H2O)}2]^8-·(99 %) and [Zr(α-PW11O39)2]^10-
POM anions with % for parent (active) anion based on signals integration ([1]; Hepes pH 7.5 freshly prepared): [{α-PW11O39Zr(µ-OH)(H2O)}2]^8-·(99 %) and [Zr(α-PW11O39)2]^10-
membrane transport activity ([2]; EYPC vesicles): - - -[j]

B12Br12^2-
Hydrolysis/Stability pH 7.5 [1]: stable
Hydrolysis/Stability pH 5.5 [1]: stable
PolyArg E (activation efficiency) ([3]; 0.1 µM polyArg, pH 7.4): 12
PolyArg Ymax ([3]; 0.1 µM polyArg, pH 7.4): 94%
EC50 ([3]; 0.1 µM polyArg, pH 7.4, read-out: PolyArg EC50): 2.6 µM
Protamine E (activation efficiency) ([3]; 1 µM protamine, pH 7.4): 8.0
Protamine Ymax ([3]; 1 µM protamine, pH 7.4): 84%
EC50 ([3]; 1 µM protamine, pH 7.4, read-out: Protamine EC50): 11 µM
HeptaArg E (activation efficiency) ([3]; 10 µM heptaArg, pH 7.4): 6.1
HeptaArg Ymax ([3]; 10 µM heptaArg, pH 7.4): 95%
EC50 ([3]; 10 µM heptaArg, pH 7.4, read-out: HeptaArg EC50): 48 µM

K4[α-Si^IVW^VI12O40]·14H2O [[SiW12]^4-]
Hydrolysis/Stability pH 7.5 [1]: to [Si^VW^VI8O39]^8-
POM anions with % for parent (active) anion based on signals integration ([1]; Hepes pH 7.5 (time not given)): [Si^IVW^VI12O40]^4- and [Si^IVW^VInO39]^8- (high noise to signal ratio, correct integration of peak cannot be performed; but clearly [Si^IVW^VI11O39]^8- is predominant)
hydrolysis above pH 4.5 [1]: rapid hydrolysis
long-term stability in aqueous solution [1]: fully hydrolyzed
membrane transport activity ([2]; EYPC vesicles): - - -[jilt]
behaviour towards liposomes at strongly acidic pH [2]: showed the desired cargo transport at acidic pH, without membrane disruption

Na3[Al^III(OH)6Mo^VI6O18]·2H2O [[AlMo6]^3-]
Hydrolysis/Stability pH 7.5 [1]: stable
POM anions with % for parent (active) anion based on signals integration ([1]; Hepes pH 7.5 after 1 day): [Al^III(OH)6MO^VI6O18]^3-
POM anions with % for parent (active) anion based on signals integration ([1]; Hepes pH 7.5 freshly prepared): [Al^III(OH)6MO^VI6O18]^3-
PolyArg E (activation efficiency) [2, 4]: 3.1
PolyArg Ymax [2, 4]: 33%
EC50 [2, 5]: 11 µM
membrane transport activity ([2]; EYPC vesicles): - - -[j]
cargo transport in CF-loaded vesicles (qualitative) ([2]; LUVs loaded with CF, added cargo): incipient transport activity, but only for polyarginine as cargo

Na3[α-P^VW^VI12O40]·nH2O [[PW12]^3-]
Hydrolysis/Stability pH 5.5 [1]: to [P^VW^VI11O39]^7-
% of hydrolysis product [P^VW^VI11O39]^7- based on signals integration ([1]; Mes pH 5.5 after 1 day): 61%
POM anions with % for parent (active) anion based on signals integration ([1]; Mes pH 5.5 after 1 day): 5%
% of hydrolysis product [P^VW^VI11O39]^7- based on signals integration ([1]; Mes pH 5.5 freshly prepared): 61%
POM anions with % for parent (active) anion based on signals integration ([1]; Mes pH 5.5 freshly prepared): 4%
POM anions with % for parent (active) anion based on signals integration ([1]; NaOAc/HOAc pH 4 after 1 day): [P^VW^VI12O40]^3- (28 %) and intermediate anions
POM anions with % for parent (active) anion based on signals integration ([1]; NaOAc/HOAc pH 4 freshly prepared): [P^VW^VI12O40]^3- (30 %) and intermediate anions
hydrolysis above pH 4.5 [1]: rapid hydrolysis
long-term stability in aqueous solution [1]: fully hydrolyzed
membrane transport activity ([2]; EYPC vesicles): - - -[j,k]
behaviour towards liposomes at strongly acidic pH [2]: strong interaction and membrane disruption

Na5[α-Al^IIIW^VI12O40]·12H2O [[AlW12]^5-]
Hydrolysis/Stability pH 7.5 [1]: stable
POM anions with % for parent (active) anion based on signals integration ([1]; Tris-HCl pH 7.5 after 1 day): [Al^IIIW^VI12O40]^5-
POM anions with % for parent (active) anion based on signals integration [1, 7]: [Al^IIIW^VI12O40]^5-
long-term stability in aqueous solution [1]: stable at neutral pH
membrane transport activity ([2]; EYPC vesicles): - - -[j]
